The values that follow are results of earlier work, collected in publication PMC10888562 (International Journal of Molecular Sciences, 2024).

The term GI50 denotes the concentration at which growth is held to half of that of the control.

Data set [1] deals with cisplatin-resistant ADDP ovarian variant. More on the design: method as in PMID 36142383, PMID 37173934, PMID 36296713. Particulars: cited from earlier work.
In the next data set the test system is A2780 ovarian. More on the design: method as in PMID 36142383, PMID 37173934, PMID 36296713. Particulars: cited from earlier work.

Structures are written as SMILES.

With `N.N.[Cl][Pt][Cl]` [Cisplatin, cis-diammineplatinum(II) dichloride], the GI50 was 28 µM in data set [1] and 1000 ± 100 nM with A2780 ovarian.
